# Measurements taken from publication PMC8920097, “Prediction of hERG inhibition of drug discovery compounds using biomimetic HPLC measurements” (ADMET & DMPK, 2021).
# Where two headings read alike, the source gives them in different places.
# Legend:
# [1] = tested on: hERG channel; details: cited from earlier work
# [2] = CHI lipophilicity by gradient reversed-phase HPLC (Gemini NX-C-18); details: for chromatographic logD: Gemini NX-C-18 reversed-phase HPLC column, pH 7.4; for chromatographic logP: reversed-phase HPLC, Gemini NX-C-18 column (50 x 3 mm, 5 µm)
# Experimental: The Chromatographic Hydrophobicity Index (CHI) was measured using the compounds’ calibrated gradient retention times obtained from an Agilent 1100 HPLC fitted with a Gemini NX-C-18 column (Phenomenex Ltd Macclesfield, UK) with dimensions of 50 x 3 mm and 5 μm particle size. […] The mobile phase B was 100 % acetonitrile. […] An acetonitrile linear gradient was used from 0 to 100 %. […] The retention time values for a standard set of compounds listed in Table 1 were used to convert the drug retention times to CHI values.
# [3] = tested on: alpha-1-acid-glycoprotein (AGP); assay: Protein binding on Chiralpak AGP HPLC column; details: pH 7.4, Chiralpak AGP
# Experimental: The measurement of the biomimetic properties of the available drugs was conducted in our laboratories. Generic gradient HPLC methods were used to determine the chromatographic hydrophobicity Index (CHI) using mobile phases at three different pH values. The protein binding of the compounds was measured using immobilised human serum albumin (HSA), and alpha-1-acid-glycoprotein (AGP) stationary phases. The phospholipid-binding was measured using the immobilised artificial membrane (IAM) stationary phase. The aim was to establish relationships between the cardiotoxicity potential and the biomimetic binding properties of the drugs and to evaluate their predictive performance.
# [4] = Phospholipid binding at pH 7.4 on IAM PC.DD2 HPLC column; assay type: physicochemical; parameters: key to CHI IAM: approximates acetonitrile concentration (%) in mobile phase at elution
# Experimental: The phospholipid-binding was measured using an IAM PC.DD2 column with dimensions of 100 x 4.6 mm (Regis Technologies Inc., Morton Grove, IL, USA). The gradient retention times were measured using a 50 mM ammonium acetate mobile phase with the pH adjusted to 7.4. The mobile phase flow rate was 1.5 mL/min. […] The cycle time was 6 min, plus an additional 1 min equilibration time was applied while the injector prepared for the next injection. The gradient retention times were calibrated with the acetophenone homologues for which the CHI IAM values have been established using isocratic measurements. […] The CHI Index on the IAM column (CHI IAM) approximates the acetonitrile concentration in the mobile phase when the compound elutes. […] The CHI IAM values have been converted to log k IAM values derived from the CHI IAM values using equation 1. It represents the equivalent value derived from several isocratic measurements with extrapolated log retention factors to 100 % aqueous mobile phase. The log k IAM values can be converted to log K (IAM) values and show linear relationships with the octanol/water partition coefficients.
# [5] = Charge character of the drugs at pH 7.4; assay type: physicochemical
# [6] = pH 7.4, derived from CHI IAM by equation 1
# [7] = literature values, mean where several reported, molar
Molecule,chromatographic logD [2],chromatographic logP [2],log k AGP [3],"log k IAM [4, 6]",Charge [5],CHI IAM ([4]; pH 7.4),hERG pIC50 [1],"hERG pIC50 [1, 7]",log k IAM ([4]; pH 7.4)
COCC(=O)O[C@]1(CCN(C)CCCc2nc3ccccc3[nH]2)CCc2cc(F)ccc2[C@@H]1C(C)C [Mibefradil],2.96,3.99,1.11,2.96,Basic,–,5.88,–,–
CCC1=C(C)CN(C(=O)NCCc2ccc(S(=O)(=O)NC(=O)N[C@H]3CC[C@H](C)CC3)cc2)C1=O [Glimepiride],2.42,3.25,0.40,1.83,–,30.76,4.13,–,–
CNCCC(Oc1ccc(C(F)(F)F)cc1)c1ccccc1 (stereo not drawn) [Fluoxetine],–,–,–,–,–,–,–,5.73,–
Cc1ccc(O)c([C@H](CCN(C(C)C)C(C)C)c2ccccc2)c1 [Tolterodine],2,4.95,–,2.83,–,–,–,–,–
C=C[C@H]1C[N@@]2CC[C@H]1C[C@@H]2[C@@H](O)c1ccnc2ccc(OC)cc12 [Quinidine],–,–,0.68,2.71,Basic,–,5.51,–,–
Prazosin,–,–,–,–,–,–,–,5.22,–
CCCc1nn(C)c2c(=O)[nH]c(-c3cc(S(=O)(=O)N4CCN(C)CC4)ccc3OCC)nc12 [Sildenafil],2.59,2.62,–,2.03,Weak Base,35.00,–,–,–
OCCN1CCN(CCCN2c3ccccc3Sc3ccc(Cl)cc32)CC1 [Perphenazine],2.92,3.5,1.13,2.61,Weak Base,–,–,5.88,–
CN(C)CCCC1(c2ccc(F)cc2)OCc2cc(C#N)ccc21 (stereo not drawn) [Citalopram],–,–,–,–,Basic,–,5.27,–,–
Nicotine,–,–,–,–,–,–,3.61,–,–
CN1CCN(CCCN2c3ccccc3Sc3ccc(C(F)(F)F)cc32)CC1 [Trifluoperazine],3.8,5.14,1.19,3.55,Basic,–,–,5.72,–
CC[C@H](C)C(=O)O[C@H]1C[C@@H](C)C=C2C=C[C@H](C)[C@H](CC[C@@H]3C[C@@H](O)CC(=O)O3)[C@H]21 [Lovastatin],4.09,–,–,2.46,–,44.38,–,–,–
CCN(CC)CC(=O)Nc1c(C)cccc1C [Lidocaine],–,–,–,1.91,Weak Base,–,–,–,–
CCn1cc(C(=O)O)c(=O)c2cc(F)c(N3CCNC(C)C3)c(F)c21 (stereo not drawn) [Lomefloxacin],-0.14,-0.14,–,2.16,–,37.89,–,–,–
CN(C)CCC=C1c2ccccc2CCc2ccccc21 [Amitriptyline],2.65,5.21,–,2.96,Basic,–,–,–,–
Cc1cc2c(s1)Nc1ccccc1N=C2N1CCN(C)CC1 [Olanzapine],–,–,–,–,Weak Base,–,–,–,2.71
CCOC(=O)N1CCC(=C2c3ccc(Cl)cc3CCc3cccnc32)CC1 [Loratadine],–,–,–,2.46,Weak Base,–,–,–,–
CN(C)CCCN1c2ccccc2CCc2ccccc21 [Imipramine],–,–,0.96,–,–,–,–,–,–
O=C(O[C@@H]1C[C@@H]2C[C@H]3C[C@H](C1)N2CC3=O)c1c[nH]c2ccccc12 [Dolasetron],1.46,1.46,–,1.95,Weak Base,–,–,–,–
OCCOCCN1CCN(C2=Nc3ccccc3Sc3ccccc32)CC1 [Quetiapine],2.55,2.69,–,–,–,–,–,–,–
CC[C@H]1OC(=O)[C@H](C)[C@@H](O[C@H]2C[C@@](C)(OC)[C@@H](O)[C@H](C)O2)[C@H](C)[C@@H](O[C@@H]2O[C@H](C)C[C@H](N(C)C)[C@H]2O)[C@](C)(O)C[C@@H](C)C(=O)[C@H](C)[C@@H](O)[C@]1(C)O [Erythromycin],1.31,2.6,–,2.20,Basic,38.79,–,–,–
CN1CCc2cccc3c2[C@H]1Cc1ccc(O)c(O)c1-3 [Apomorphine],1.17,2.66,–,2.24,–,–,–,–,–
CNCCCC12CCC(c3ccccc31)c1ccccc12 [Maprotiline],2.03,4.79,0.99,3.03,Basic,–,–,5.17,–
CC1COc2c(N3CCN(C)CC3)c(F)cc3c(=O)c(C(=O)O)cn1c23 (stereo not drawn) [Ofloxacin],0.53,–,-0.81,1.62,Zwitterionic,–,2.93,–,–
CC(=O)N1CCN(c2ccc(OCC3COC(Cn4ccnc4)(c4ccc(Cl)cc4Cl)O3)cc2)CC1 (stereo not drawn) [Ketoconazole],–,–,–,2.16,–,37.86,–,–,–
CSc1ccc2c(c1)N(CCC1CCCCN1C)c1ccccc1S2 (stereo not drawn) [Thioridazine],3.02,5.46,–,3.65,–,–,–,–,–
Cc1nc2n(c(=O)c1CCN1CCC(c3noc4cc(F)ccc34)CC1)CCCC2 [Risperidone],–,–,–,2.09,Weak Base,–,–,–,–
CCN(CC)CCCC(C)Nc1ccnc2cc(Cl)ccc12 (stereo not drawn) [Chloroquine],–,–,–,–,–,–,–,5.03,–
CC(C)(C)c1ccc(C(=O)CCCN2CCC(OC(c3ccccc3)c3ccccc3)CC2)cc1 [Ebastine],4.96,6.54,1.34,3.12,Basic,–,–,–,–
O=C(O)c1cn(C2CC2)c2cc(N3CCNCC3)c(F)cc2c1=O [Ciprofloxacin],–,–,–,1.59,Zwitterionic,–,–,–,–

# Further lines, with some results ahead:
chromatographic logD [2],chromatographic logP [2],log k AGP [3],"log k IAM [4, 6]",Charge [5],CHI IAM ([4]; pH 7.4),Molecule,hERG pIC50 [1],"hERG pIC50 [1, 7]",log k IAM ([4]; pH 7.4)
2.76,3.12,–,2.35,Basic,41.95,COc1ccc([C@@H]2Sc3ccccc3N(CCN(C)C)C(=O)[C@@H]2OC(C)=O)cc1 [Diltiazem],–,–,–
–,–,–,2.29,–,–,O=C(O)COCCN1CCN(C(c2ccccc2)c2ccc(Cl)cc2)CC1 (stereo not drawn) [Cetirizine],–,–,–
-0.39,-0.35,-1.41,1.43,Basic,–,CC(C)NCC(O)c1ccc(NS(C)(=O)=O)cc1 (stereo not drawn) [Sotalol],–,3.57,–
-0.58,0.97,1.79,2.64,Basic,48.16,CN(C)CCCN1c2ccccc2Sc2ccc(Cl)cc21 [Chlorpromazine],–,5.65,–
–,–,0.94,–,Basic,–,CNCCCN1c2ccccc2CCc2ccccc21 [Desipramine],–,5.36,–
3.25,3.41,0.64,2.2,Neutral,38.64,CC(C)c1nc(CN(C)C(=O)N[C@H](C(=O)N[C@@H](Cc2ccccc2)C[C@H](O)[C@H](Cc2ccccc2)NC(=O)OCc2cncs2)C(C)C)cs1 [Ritonavir],–,–,–
–,–,–,1.14,Basic,–,CC(C)NCC(O)COc1ccc(CC(N)=O)cc1 (stereo not drawn) [Atenolol],–,–,–
–,–,–,1.01,–,–,Cc1cc(NS(=O)(=O)c2ccc(N)cc2)no1 [Sulfamethoxazole],–,–,–
3.15,3.19,0.69,–,Neutral,–,CCOC(=O)C1=C(C)NC(C)=C(C(=O)OC)C1c1cccc([N+](=O)[O-])c1 (stereo not drawn) [Nitrendipine],–,5.10,–
2.07,3.17,–,1.93,Acidic,–,COc1ccc(Cl)cc1C(=O)NCCc1ccc(S(=O)(=O)NC(=O)NC2CCCCC2)cc1 [Glibenclamide],–,–,–
3.18,3.18,1.18,3.19,Basic,–,CN1CCC[C@@H]1CCO[C@](C)(c1ccccc1)c1ccc(Cl)cc1 [Clemastine],–,–,–
–,–,–,2.06,Basic,–,CN(C)CCOC(c1ccccc1)c1ccccc1 [Diphenhydramine],–,–,–
-0.59,0.95,–,1.29,Basic,–,CCN(CC)CCNC(=O)c1ccc(N)cc1 [Procainamide],–,–,–
